IC50 and melting point data for 10 compounds are collected here from patent US6589950B1, “Purine derivatives inhibitors of tyrosine protein kinase SYK” (Novartis AG, priority 1999, dated 2003).

The melting point is the temperature of the solid-liquid transition.

Where a name gives a salt, the structure may show the parent alone.

The target in one series is syk kinase (Homo sapiens, UniProt P43405). Kind of series: syk kinase peptide phosphorylation scintillation proximity assay (SPA). It is filed as biochemical. As to conditions: biotin-EDPDYEWPSA substrate, 33P-ATP, SPA beads, room temperature 30 minutes; read-out: IC50 (concentration at which 50% inhibition of syk kinase phosphorylation occurs). An excerpt: Compounds of formula I in free or salt form are useful as pharmaceuticals. Accordingly the invention also provides a compound of formula I in free or pharmaceutically acceptable salt form for use as a pharmaceutical. The compounds of formula I in free or pharmaceutically acceptable salt form, hereinafter referred to alternatively as “agents of the invention”, inhibit the activity of the tyrosine protein kinase syk, which is an activator of pro-inflammatory cells driving an allergic response.
In this assay the effect of an agent of the invention on the phosphorylation of a peptide by syk kinase is determined. The phosphate is transferred from the terminal phosphate of adenosine triphosphate (ATP) to the biotin-modified peptide biotin-EDPDYEWPSA (available from Genosys) which is a known specific substrate for syk. When ^33P-phosphorylated peptide binds to streptavidin-polyvinyltoluene (PVT) Scintillation Proximity Assay (SPA) beads (available from Amersham), the emitted β-particles excite the fluorophore in the beads and produce light.
To the wells of an Optiplate (Canberra Packard) are added (i) the compound under test in DMSO/distilled water (10 μl), (ii) 20 μl of a composition formed by mixing 1 mM biotin-EDPDYEWPSA (5.5 μl), 300 μM ATP (18.3 μl), and ^33P-ATP in sufficient amount to add 0.1 μCi ^33P-ATP per well (1.1 μl on the day of production) and making up the volume to 2.2 ml with a buffer (Buffer A) prepared by dissolving tris-base (0.36 g) in distilled water (80 ml), adjusting the pH to 7.5 with 1M hydrochloric acid, adding 1M aqueous MgCl2 (1.5 ml), 50 mM aqueous sodium orthovanadate (30 μl) and 1M aqueous dithiothrietol (150 μl), and making the volume up to 120 ml with distilled water, (iii) 0.5% w/v syk kinase in Buffer A (20 μl). The plate is incubated at room temperature for 30 minutes with shaking, the reaction is then terminated by addition to all wells of 150 μl of a mixture prepared by reconstituting 500 mg Streptavidin-PVT SPA beads in 373 ml of Tris-buffered saline containing 673.6 g cesium chloride, 20 ml 0.5M EDTA and 27.5 mg ATP (disodium salt) per litre. The plate is again incubated at room temperature for 30 minutes with shaking, then sealed using Top Seal-S (Canberra Packard) according to the manufacturer's instructions and left to stand at room temperature for 1 hour. The resulting scintillations are counted using a Packard TopCount, each well being counted for 1 minute.
The procedure is repeated for different concentrations of test compound selected to cover the range of 0% to 100% inhibition and the concentration at which 50% inhibition of syk kinase phosphorylation occurs (IC50) for each compound is determined from concentration-inhibition curves in a conventional manner.
A general note: SPA uses beads or plates that emit light when radiolabelled molecules are held near them.
For `CC(C)(C)OC(=O)Nc1ccc(Nc2nc(NC3CC3)c3nc[nH]c3n2)cc1` [Example 3], the IC50 worked out at 5 nM.

Consider `c1nc2c(NC3CC3)nc(Nc3ccc(N4CCOCC4)cc3)nc2[nH]1` [Example 5], for which the IC50 was 9 nM.

Consider `CC(=O)N(C)c1ccc(Nc2nc(NC3CCC3)c3nc[nH]c3n2)cc1` [Example 6], for which the IC50 came out at 10 nM.

As for `CN1CCN(c2ccc(Nc3nc(NC4CC4)c4nc[nH]c4n3)cc2)CC1` [Example 102], the IC50 came out at 5 nM.

With `CC(=O)N1CCN(c2ccc(Nc3nc(NC4CC4)c4nc[nH]c4n3)cc2)CC1` [Example 103], the IC50 came out at 2 nM.

For `CC(=O)N1CCN(c2ccc(Nc3nc(NC4CCC4)c4nc[nH]c4n3)cc2)CC1` [Example 104], the IC50 was 3.6 nM.

As for `CC(=O)N(C)c1ccc(Nc2nc(NC(C)(C)C)c3nc[nH]c3n2)cc1` [Example 138], the IC50 amounted to 14 nM.

Turning to `CCN(C(C)=O)c1ccc(Nc2nc(NC(C)C)c3nc[nH]c3n2)cc1` [Example 170], the IC50 was 10 nM.

Tested on in another series: not given
Experiment: not given
Settings: not given
As to `CC(=O)N(C)c1ccc(Nc2nc(NC3CCC3)c3nc[nH]c3n2)cc1` (as salt: HCl) [Example 6], the melting point is 314 to 318 °C.

In the case of `c1nc2c(NC3CC3)nc(Nc3ccc(N4CCOCC4)cc3)nc2[nH]1` [Example 5], the melting point lay in the range of 201.9 to 203.7 °C.

As for `c1ccc(Nc2nc(NC3CCC3)c3[nH]cnc3n2)cc1` [Example 121, 6-Cyclobutylamino-2-anilinopurine], the melting point was 312 to 314 °C.

As for `CC(=O)N(C)c1ccc(Nc2nc(NC(C)(C)C)c3nc[nH]c3n2)cc1` [Example 138], the melting point lay in the range of 273 to 274 °C.
